The target in the assay is CFTR-mediated chloride transport (Homo sapiens, UniProt P13569). Nature of the assay: Corrector Assay A - membrane potential dye assay (enteroid cells). Particulars: for Corrector Assay A % activity: % of chloride transport of triple combination control (1 μM (14S)-dispiro macrocycle + 3 μM tezacaftor + 300 nM ivacaftor); for EC50: read-out: Corrector Assay A EC50, human intestinal enteroid cells, 18-24 h incubation, acute 10 μM forskolin + 300 nM ivacaftor.

Bounds are passed on as bounds.

By EC50 is commonly meant the midpoint of the concentration-response curve. As to `CC(C)(C)c1ccc2c(n1)N1C[C@@H](CC[C@H](c3cccc(CCCN)n3)Nc3cccc(n3)S(=O)(=O)NC2=O)CC1(C)C` [Compound 134, (14S,17R)-17-[6-(3-aminopropyl)pyridin-2-yl]-8-tert-butyl-12,12-dimethyl-2λ^6-thia-3,9,11,18,23-pentaazatetracyclo[17.3.1.111,14.05,10]tetracosa-1(23),5(10),6,8,19,21-hexaene-2,2,4-trione], the “Corrector Assay A % activity” value is reported as “+++ (+++ is >60%)” and the half-maximal effective concentration (EC50) is less than 1000 nM.
For `CC(C)(C)c1ccc2c(n1)N1C[C@@H](CCC(c3ccc(-c4cn[nH]c4)cn3)Nc3cccc(n3)S(=O)(=O)NC2=O)CC1(C)C` (some centres unmarked) [Compound 135] the same measures were “++ (++ is 30-60%)” and less than 1000 nM.
Regarding `CC(C)(C)c1ccc2c(n1)N1C[C@@H](CCC(c3ccc(-c4cn[nH]c4)cn3)Nc3cccc(n3)S(=O)(=O)NC2=O)CC1(C)C` (some centres unmarked) [Compound 136], the “Corrector Assay A % activity” value is “+++ (+++ is >60%)” and the EC50 is less than 1000 nM.
For `CC(C)(C)c1ccc2c(n1)N1C[C@@H](CCC(c3ccc(CCCN)cn3)Nc3cccc(n3)S(=O)(=O)NC2=O)CC1(C)C` (some centres unmarked) [Compound 137] the same measures were “++ (++ is 30-60%)” and less than 1000 nM.
In the same order, the values of `CC(C)(C)c1ccc2c(n1)N1C[C@@H](CCC(c3ccc(CCCN)cn3)Nc3cccc(n3)S(=O)(=O)NC2=O)CC1(C)C` (stereo partly drawn) [Compound 138, (14S)-17-[5-(3-aminopropyl)pyridin-2-yl]-8-tert-butyl-12,12-dimethyl-2λ^6-thia-3,9,11,18,23-pentaazatetracyclo[17.3.1.111,14.05,10]tetracosa-1(23),5(10),6,8,19,21-hexaene-2,2,4-trione] are “++ (++ is 30-60%)” and less than 1000 nM.
As for `CC(C)(C)c1ccc2c(n1)N1C[C@@H](CC[C@@H](c3cccc(CCC#N)n3)Nc3cccc(n3)S(=O)(=O)NC2=O)CC1(C)C` [Compound 139], the “Corrector Assay A % activity” value is listed as “+ (+ is <30%)” and the EC50 is greater than 3000 nM.
With `CC(C)(C)c1ccc2c(n1)N1C[C@@H](CC[C@H](c3cccc(CCC#N)n3)Nc3cccc(n3)S(=O)(=O)NC2=O)CC1(C)C` [Compound 140], the “Corrector Assay A % activity” value is reported as “++ (++ is 30-60%)” and the concentration giving a half-maximal response (EC50) was less than 1000 nM.
In the same order, the values of `CC(C)(C)c1ccc2c(n1)N1C[C@@H](CC[C@@H](c3cccc(C4=CCNCC4)n3)Nc3cccc(n3)S(=O)(=O)NC2=O)CC1(C)C` [Compound 141] are “++ (++ is 30-60%)” and 1000 to 3000 nM.
In the same order, the values of `CC(C)(C)c1ccc2c(n1)N1C[C@@H](CC[C@H](c3cccc(C4=CCNCC4)n3)Nc3cccc(n3)S(=O)(=O)NC2=O)CC1(C)C` [Compound 142, (14S,17R)-8-tert-Butyl-12,12-dimethyl-17-{1′,2′,3′,6′-tetrahydro-[2,4′-bipyridine]-6-yl}-2λ^6-thia-3,9,11,18,23-pentaazatetracyclo [17.3.1.111,14.05,10]tetracosa-1(23),5(10),6,8,19,21-hexaene-2,2,4-trione] are “+++ (+++ is >60%)” and less than 1000 nM.
For `CC(C)(C)c1ccc2c(n1)N1C[C@@H](CCC(c3ccc(CCC#N)cn3)Nc3cccc(n3)S(=O)(=O)NC2=O)CC1(C)C` (stereo partly drawn) [Compound 146, 3-{6-[(14S)-8-tert-butyl-12,12-dimethyl-2,2,4-trioxo-2λ^6-thia-3,9,11,18,23-pentaazatetracyclo[17.3.1.111,14.05,10]tetracosa-1(23),5(10),6,8,19,21-hexaen-17-yl]pyridin-3-yl}propanenitrile] the same measures were “+++ (+++ is >60%)” and less than 1000 nM.
Consider `CC(C)(C)c1ccc2c(n1)N1C[C@@H](CC[C@@H](c3cccc(C4CCOCC4)n3)Nc3cccc(n3)S(=O)(=O)NC2=O)CC1(C)C` [Compound 147], for which the “Corrector Assay A % activity” value is reported as “+ (+ is <30%)” and the EC50 is greater than 3000 nM.
In the same order, the values of `CC(C)(C)c1ccc2c(n1)N1C[C@@H](CC[C@H](c3cccc(C4CCOCC4)n3)Nc3cccc(n3)S(=O)(=O)NC2=O)CC1(C)C` [Compound 148] are “+++ (+++ is >60%)” and less than 1000 nM.
In the same order, the values of `CC(C)(C)c1ccc2c(n1)N1C[C@@H](CC[C@@H](c3cccc(C4=CCOCC4)n3)Nc3cccc(n3)S(=O)(=O)NC2=O)CC1(C)C` [Compound 149] are “+ (+ is <30%)” and less than 1000 nM.
In the same order, the values of `CC(C)(C)c1ccc2c(n1)N1C[C@@H](CC[C@H](c3cccc(C4=CCOCC4)n3)Nc3cccc(n3)S(=O)(=O)NC2=O)CC1(C)C` [Compound 150] are “+++ (+++ is >60%)” and less than 1000 nM.
Take `CC(C)(C)c1ccc2c(n1)N1C[C@@H](CC[C@@H](c3cccc(C4CNC4)n3)Nc3cccc(n3)S(=O)(=O)NC2=O)CC1(C)C` [Compound 151]: the “Corrector Assay A % activity” value is “++ (++ is 30-60%)” and the EC50 is less than 1000 nM.
In the same order, the values of `CC(C)(C)c1ccc2c(n1)N1C[C@@H](CC[C@H](c3cccc(C4CNC4)n3)Nc3cccc(n3)S(=O)(=O)NC2=O)CC1(C)C` [Compound 152] are “+++ (+++ is >60%)” and less than 1000 nM.
Take `CC(C)(C)c1ccc2c(n1)N1C[C@@H](CCC(c3ccc(C4CCNCC4)cn3)Nc3cccc(n3)S(=O)(=O)NC2=O)CC1(C)C` (some centres unmarked) [Compound 153]: the “Corrector Assay A % activity” value is “++ (++ is 30-60%)” and the EC50 was less than 1000 nM.
In the same order, the values of `CC(C)(C)c1ccc2c(n1)N1C[C@@H](CCC(c3ccc(C4CCNCC4)cn3)Nc3cccc(n3)S(=O)(=O)NC2=O)CC1(C)C` (stereo partly drawn) [Compound 154, (14S)-8-tert-Butyl-12,12-dimethyl-17-[5-(piperidin-4-yl)pyridin-2-yl]-2λ^6-thia-3,9,11,18,23-pentaazatetracyclo[17.3.1.111,14.05,10]tetracosa-1(23),5(10),6,8,19,21-hexaene-2,2,4-trione] are “+++ (+++ is >60%)” and less than 1000 nM.
In the same order, the values of `CC(C)(C)c1ccc2c(n1)N1C[C@@H](CCC(c3ccc(C4CCOCC4)cn3)Nc3cccc(n3)S(=O)(=O)NC2=O)CC1(C)C` (some centres unmarked) [Compound 156] are “++ (++ is 30-60%)” and less than 1000 nM.
Regarding `CC(C)CC#Cc1ccc2c(n1)N1C[C@@H](CC[C@H](c3ccccn3)Nc3cccc(n3)S(=O)(=O)NC2=O)CC1(C)C` [Compound 157, (14S,17R)-12,12-dimethyl-8-(4-methylpent-1-yn-1-yl)-17-(pyridin-2-yl)-2λ^6-thia-3,9,11,18,23-pentaazatetracyclo[17.3.1.111,14.05,10]tetracosa-1(22),5,7,9,19(23),20-hexaene-2,2,4-trione], the “Corrector Assay A % activity” value was “+++ (+++ is >60%)” and the EC50 is less than 1000 nM.
As to `CC(C)CC#Cc1ccc2c(n1)N1C[C@@H](CC[C@@H](c3ccccn3)Nc3cccc(n3)S(=O)(=O)NC2=O)CC1(C)C` [Compound 158], the “Corrector Assay A % activity” value was “++ (++ is 30-60%)” and the concentration giving a half-maximal response (EC50) is less than 1000 nM.
In the same order, the values of `CC1(C)C[C@@H]2CC[C@H](c3ccccn3)Nc3cccc(n3)S(=O)(=O)NC(=O)c3ccc(Cc4ccccc4)nc3N1C2` [Compound 159] are “+++ (+++ is >60%)” and less than 1000 nM.
